Where two headings read alike, the source gives them in different places.
Key:
[1] = system: KARN cells (Jurkat 2C4); experiment: cells; format: cell-based
Protocol: KARN cells (Jurkat 2C4) were licensed from the laboratory of Dr. John Karn, Case Western Reserve University, School of Medicine. […] An atmosphere of 5% CO2 and 90% humidity was used for all culture work.
Day 1: After the 3-4 day growth period, the cells were transferred from the T175 flask to a 50 ml conical tube and gently pelleted at 1000 rpm for 5 minutes. […] These flasks were returned to the incubator.
Day 2: Cell Preparation: The next day, the cells were transferred from each T175 flask to an individual 50 ml conical tube and gently pelleted at 1000 rpm for 5 minutes. The cells were gently resuspended in assay media (30 ml) and pelleted again. […] The cells were counted using the ViCell (Beckman Coulter) and diluted as necessary. […] The plates were covered and returned to the incubator prior to compound addition.
The reference compounds, DMSO and SAHA were then added to the compound plate. […] The final high concentration for SAHA and the test compounds in the assays was 40 μM. The final DMSO concentration in all wells was 0.4%. The minimal induction reference compound used was DMSO and the maximal induction reference compound used was SAHA (2 μM final concentration in the assay).
Day 3: The luciferase detection reagent was prepared by transferring the contents of one bottle of Steady-Glo buffer to one bottle of Steady-Glo aubstrate (Steady-Glo Luciferase Assay System, Promega, catalog number E2520), followed by gently mixing until the substrate was thoroughly dissolved and the solution was equilibrated to room temperature. […] The Steady-Glo Reagent was added to the plates (30 μl/well), which were then covered with a black lid and incubated for 10 minutes at room temperature. The plates were then read for luminescence on an Envision (Perkin Elmer) using the ultrasensitive mode (US LUM), […] and 384-well aperture. Luminescence counts in the DMSO reference wells were considered as 0% induction, while those in the 2 μM SAHA reference wells were considered as 100% induction. Dose response curves were plotted as test compound concentration (X-axis) vs. percent activation (Y-axis) using a 4-parameter fit based on the Levenberg-Marquardt algorithm.

[2] = target: T1, Recombinant human HDAC8 (Homo sapiens, UniProt Q9BY41); experiment: Human HDAC enzyme inhibitor Fluor-de-Lys assay, HDAC8; format: biochemical
T1 construct: purchased Enzo Life Sciences BML-SE145-0100
T1 sequence (Q9BY41 1-377): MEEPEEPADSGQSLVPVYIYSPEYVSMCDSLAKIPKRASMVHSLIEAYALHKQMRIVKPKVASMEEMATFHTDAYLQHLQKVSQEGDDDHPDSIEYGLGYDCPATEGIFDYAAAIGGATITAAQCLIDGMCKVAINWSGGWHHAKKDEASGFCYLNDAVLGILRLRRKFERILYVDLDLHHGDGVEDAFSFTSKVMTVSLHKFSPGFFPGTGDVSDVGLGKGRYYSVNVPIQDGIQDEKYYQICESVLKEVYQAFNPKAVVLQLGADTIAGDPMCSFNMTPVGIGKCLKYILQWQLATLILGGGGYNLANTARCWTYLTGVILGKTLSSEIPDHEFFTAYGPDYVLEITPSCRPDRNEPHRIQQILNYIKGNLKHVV
Protocol: (§1) Human HDAC Enzyme Inhibitor Fluor-De-Lys Assay
(§2) Recombinant human HDAC8 (BML-SE145-0100) and HDAC10 (BML-SE559-0050) enzymes, HDAC substrates BML-KI104 and BML-KI178, and HDAC developer solutions BML-KI105 and BML-KI176 were purchased from Enzo Life Sciences. […] HDAC inhibitor suberoylanilide hydroxamic acid (SAHA) was obtained from Indofine and trichostatin A (TSA) was obtained from Sigma-Aldrich.
(§3) The histone deacetylase activities of HDAC1, HDAC2, HDAC3, HDAC6, and HDAC8 were measured in modified FLUOR DE LYS assays in 384-well format. In this assay, HDAC enzymes are initially incubated with an ε-acetyl (or -trifluoroacetyl)-L-lysine-containing substrate with a C-terminal amide having aminomethylcoumarin as the amine component. HDACs cleave the ε-acetyl group, rendering the resulting product susceptible to AMC cleavage by trypsin. The released AMC is then detected by its fluorescence.
(§4) The HDAC3/SMRT assay employed buffer B, consisting of 20 mM HEPES, pH 8.0, 1 mM MgCl2, 50 mM NaCl, 2.7 mM KCl, 0.05% BSA, 0.005% Tween 20, and 10 μM IP4. […] The HDAC8 assay employed buffer D, consisting of 20 mM HEPES, pH 8.0, 1 mM MgCl2, 100 mM NaCl, 20 mM KCl, 0.10% n-octyl-β-D-glucoside (Anatrace) and 0.05% BSA. All steps were performed at room temperature (23° C.). The assay was performed by pre-incubating serial dilutions of test compounds with the target HDAC prior to initiation with substrate. Each compound was titrated in a 10-point dose response, using a 1:3 fold dilution scheme, with 0.15 ul of solution added by ECH0555 to the plate, followed by the addition of 20 μl of the appropriate HDAC isoform diluted in appropriate assay buffer. […] Final conditions used for each assay were: 1. HDAC 1, 0.3 nM total enzyme, 20 μM substrate BML-KI104; 2. […] HDAC 3/SMRT, 0.3 nM total enzyme, 20 μM substrate BML-KI104; 4. […] The reactions were stopped and developed by addition of 30 ul of HDAC developer solution containing a saturating level of HDAC inhibitor as follows: 1.

[3] = target: T2, HDAC6 (Homo sapiens, UniProt Q9UBN7); experiment: Human HDAC enzyme inhibitor Fluor-de-Lys assay, HDAC6; format: biochemical
T2 sequence (Q9UBN7 1-1215): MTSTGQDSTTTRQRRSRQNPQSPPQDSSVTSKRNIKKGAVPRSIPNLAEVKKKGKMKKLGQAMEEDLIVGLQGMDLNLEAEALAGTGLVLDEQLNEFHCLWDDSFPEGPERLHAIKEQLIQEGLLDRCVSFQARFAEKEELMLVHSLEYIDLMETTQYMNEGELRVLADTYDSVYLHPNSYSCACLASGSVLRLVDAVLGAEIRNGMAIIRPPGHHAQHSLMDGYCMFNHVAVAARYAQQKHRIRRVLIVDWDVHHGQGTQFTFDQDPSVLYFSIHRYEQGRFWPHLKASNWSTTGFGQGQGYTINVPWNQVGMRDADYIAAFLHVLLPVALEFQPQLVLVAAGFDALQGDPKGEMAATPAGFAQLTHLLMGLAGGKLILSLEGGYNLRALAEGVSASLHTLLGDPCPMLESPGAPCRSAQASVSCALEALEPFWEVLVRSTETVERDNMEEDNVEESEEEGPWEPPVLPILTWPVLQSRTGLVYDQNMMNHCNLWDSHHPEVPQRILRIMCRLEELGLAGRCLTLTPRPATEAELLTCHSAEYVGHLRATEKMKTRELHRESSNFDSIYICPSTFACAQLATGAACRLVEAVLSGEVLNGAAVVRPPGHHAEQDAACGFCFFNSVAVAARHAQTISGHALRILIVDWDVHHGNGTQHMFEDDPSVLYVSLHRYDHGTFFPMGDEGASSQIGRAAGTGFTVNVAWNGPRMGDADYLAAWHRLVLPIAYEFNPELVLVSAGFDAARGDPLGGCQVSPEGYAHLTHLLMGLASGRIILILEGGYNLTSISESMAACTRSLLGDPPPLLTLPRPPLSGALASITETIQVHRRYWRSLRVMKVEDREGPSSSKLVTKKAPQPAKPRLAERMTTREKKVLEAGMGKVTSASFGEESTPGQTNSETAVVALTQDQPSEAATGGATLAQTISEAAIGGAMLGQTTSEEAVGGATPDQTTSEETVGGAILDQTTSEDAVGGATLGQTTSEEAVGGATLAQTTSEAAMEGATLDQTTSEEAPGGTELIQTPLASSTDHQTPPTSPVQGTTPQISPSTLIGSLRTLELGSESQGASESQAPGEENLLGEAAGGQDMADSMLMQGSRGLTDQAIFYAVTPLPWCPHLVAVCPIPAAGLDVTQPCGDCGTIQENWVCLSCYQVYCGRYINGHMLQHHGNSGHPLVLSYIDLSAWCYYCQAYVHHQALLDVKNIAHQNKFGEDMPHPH
Protocol: as §1, §2, §3, §4

[4] = Homo sapiens, Jurkat, read-out: Karn EC50 (nM) 0.1% NHS, 0.1% normal human serum
[5] = Homo sapiens, Jurkat, read-out: Karn EC50 (nM) 5% NHS, 5% normal human serum
[6] = Homo sapiens, Jurkat, read-out: Karn EC50 (nM) 0.1% NHS, 0.1% normal human serum, luciferase induction, 100% = 2 μM SAHA
[7] = Homo sapiens, Jurkat, read-out: Karn EC50 (nM) 5% NHS, 5% normal human serum, luciferase induction, 100% = 2 μM SAHA
[8] = recombinant human HDAC8, Fluor-de-Lys assay

Compound	EC50 [1, 4]	EC50 [1, 5]	IC50 [2]	IC50 [3]	EC50 [1, 6]	EC50 [1, 7]	IC50 [2, 8]	IC50 ([3]; HDAC6, Fluor-de-Lys assay)	EC50 ([1]; read-out: Karn EC50 (nM) 0.1% NHS, 0.1% normal human serum, luciferase induction, 100% = 2 μM SAHA)	EC50 ([1]; read-out: Karn EC50 (nM) 5% NHS, 5% normal human serum, luciferase induction, 100% = 2 μM SAHA)
CCC(=O)CCCCC[C@H](NC(=O)[C@H]1CC12CCOCC2)c1ncc(-c2cc3ccccc3nc2OC)[nH]1 [Compound 63]	234 nM	1790 nM	3090 nM	619 nM	–	–	–	–	–	–
CCC(=O)CCCCC[C@H](NC(=O)[C@H]1CC12CCN(C)CC2)c1ncc(-c2cc3ccc(-c4ncco4)cc3nc2OC)[nH]1 [Compound 175, (1S)—N-[(1S)-1-{5-[2-methoxy-7-(1,3-oxazol-2-yl)quinolin-3-yl]-1H-imidazol-2-yl}-7-oxononyl]-6-methyl-6-azaspiro[2.5]octane-1-carboxamide]	48 nM	84 nM	> 150 nM	> 150 nM	–	–	–	–	–	–
CCC(=O)CCCCC[C@H](NC(=O)[C@H]1CCC12CCN(CC)CC2)c1ncc(-c2cc3ccccc3nc2OC)[nH]1 [Compound 338]	–	–	–	–	44 nM	111 nM	2930 nM	405 nM	–	–
CCC(=O)CCCCC[C@H](NC(=O)[C@@H]1CC12CCCN(C)C2)c1ncc(-c2cc3ccccc3nc2OC)[nH]1 (stereo partly shown) [Compound 285]	–	–	–	–	257 nM	1010 nM	9190 nM	260 nM	–	–
CCC(=O)CCCCC[C@H](NC(=O)[C@H]1CC12CCN(C(N)=O)CC2)c1ncc(-c2cc3ccccc3nc2OC)[nH]1 (single isomer, unassigned) [Compound 319]	–	–	–	–	1560 nM	9850 nM	2270 nM	1170 nM	–	–
CCC(=O)CCCCC[C@H](NC(=O)[C@@H]1C[C@]12CCN(C)C2)c1ncc(-c2cc3ccccc3nc2OC)[nH]1 [Compound 329]	–	–	–	–	262 nM	1140 nM	7040 nM	> 150 nM	–	–
CCC(=O)CCCCC[C@H](NC(=O)C1CCC2(CC1)CN(C)C2)c1ncc(-c2cc3ccccc3nc2OC)[nH]1 [Compound 315]	–	–	–	–	86 nM	688 nM	1950 nM	459 nM	–	–
CCC(=O)CCCCC[C@H](NC(=O)[C@H]1CC12CCCN(C)C2)c1ncc(-c2cc3ccccc3nc2OC)[nH]1 (stereo partly shown) [Compound 286]	–	–	–	–	116 nM	406 nM	3870 nM	342 nM	–	–
CCC(=O)CCCCC[C@H](NC(=O)[C@H]1CC12CCN(CC)CC2)c1ncc(-c2ccc(F)cc2OC)[nH]1 [Compound 197]	369 nM	538 nM	7540 nM	3380 nM	–	–	–	–	–	–
CCC(=O)CCCCC[C@H](NC(=O)C1CCC2(CC1)CN(C)C2)c1ncc(-c2cc3ccccc3nc2OC)[nH]1 [Compound 316]	–	–	–	–	–	–	1680 nM	387 nM	151 nM	660 nM
CCC(=O)CCCCC[C@H](NC(=O)[C@H]1CC12CCN(CC1CC1)CC2)c1ncc(-c2cc3ccccc3nc2OC)[nH]1 [Compound 336]	–	–	–	–	16 nM	30 nM	3130 nM	189 nM	–	–
CCC(=O)CCCCC[C@H](NC(=O)[C@H]1CC12CCN(CC)CC2)c1ncc(-c2cc3nn(C)cc3cc2OC)[nH]1 [Compound 190]	967 nM	1450 nM	3110 nM	562 nM	–	–	–	–	–	–
CCC(=O)CCCCC[C@H](NC(=O)[C@H]1CC12CCN(CC(C)C)CC2)c1ncc(-c2cc3ccccc3nc2OC)[nH]1 [Compound 335]	–	–	–	–	31 nM	63 nM	3280 nM	329 nM	–	–
CCC(=O)CCCCC[C@H](NC(=O)[C@H]1CC12CCN(CC(F)(F)F)CC2)c1ncc(-c2cc3ccccc3nc2OC)[nH]1 [Compound 333]	–	–	–	–	113 nM	719 nM	6090 nM	1110 nM	–	–
CCC(=O)CCCCC[C@H](NC(=O)[C@@H]1CC12CCN(C(N)=O)CC2)c1ncc(-c2cc3ccccc3nc2OC)[nH]1 (single isomer, unassigned) [Compound 318]	–	–	–	–	861 nM	4600 nM	1200 nM	551 nM	–	–
CCC(=O)CCCCC[C@H](NC(=O)[C@@H]1CC12CCN(CC)CC2)c1ncc(-c2cc3ccccc3[nH]c2=O)[nH]1 [Compound 292]	–	–	–	–	992 nM	1380 nM	> 4500 nM	> 1500 nM	–	–

— patent US12590099B2, “Inhibitors of histone deacetylase useful for the treatment or prevention of HIV infection” (Merck Sharp & Dohme LLC, priority 2018, dated 2026)
